According to ChEMBL document CHEMBL2046435, “Cytotoxic metabolites from the antarctic psychrophilic fungus Oidiodendron truncatum” (J Nat Prod, 2012):

Experiments:
Format in all cases: functional, cell-based
HCT-8 = experiment: Cytotoxicity against human HCT8 cells after 72 hrs by MTT assay; conditions: HCT-8, 72 h
Bel-7402 = experiment: Cytotoxicity against human Bel7402 cells after 72 hrs by MTT assay; conditions: Bel-7402, 72 h
BGC-823 = experiment: Cytotoxicity against human BGC823 cells after 72 hrs by MTT assay; conditions: BGC-823, 72 h
A549 = experiment: Cytotoxicity against human A549 cells after 72 hrs by MTT assay; conditions: A549, 72 h
A2780 = experiment: Cytotoxicity against human A2780 cells after 72 hrs by MTT assay; conditions: A2780, 72 h

Structure (SMILES) | IC50 (HCT-8) | IC50 (Bel-7402) | IC50 (BGC-823) | IC50 (A549) | IC50 (A2780)
O=C1N[C@@H](Cc2c[nH]c3ccccc23)C(=O)N[C@H]1CO | > 10000 nM | > 10000 nM | > 10000 nM | > 10000 nM | > 10000 nM
CN1C(=O)[C@]23SSS[C@]1(CO)C(=O)N2[C@H]1Nc2ccccc2[C@@]1(c1c[nH]c2ccccc12)[C@@H]3O | 1180 nM | 750 nM | 1460 nM | 1530 nM | 420 nM
CS[C@]1(CO)NC(=O)[C@](Cc2c[nH]c3ccccc23)(SC)NC1=O [CHETOSEMINUDIN C] | > 10000 nM | > 10000 nM | > 10000 nM | > 10000 nM | > 10000 nM
CN1C(=O)[C@]23SS[C@@]1(CO)C(=O)N2[C@H]1Nc2ccccc2C1([C@@]12c4ccccc4N[C@@H]1N1C(=O)[C@]4(CO)SSS[C@]1(C(=O)N4C)[C@H]2O)[C@@H]3O (stereo partly drawn) [CHETRACIN B] | 13 nM | 3 nM | 11 nM | 22 nM | 28 nM
CN1C(=O)[C@]23SSS[C@@]1(CO)C(=O)N2[C@H]1Nc2ccccc2C1([C@@]12c4ccccc4N[C@@H]1N1C(=O)[C@]4(CO)SSS[C@]1(C(=O)N4C)[C@H]2O)[C@@H]3O (stereo partly drawn) [CHETRACIN C] | 490 nM | 380 nM | 700 nM | 720 nM | 580 nM
CS[C@@]1(CO)C(=O)N2[C@H]3Nc4ccccc4C3([C@@]34c5ccccc5N[C@@H]3N3C(=O)[C@](CO)(SC)N(C)C(=O)[C@@]3(SC)[C@H]4O)[C@H](O)[C@]2(SC)C(=O)N1C (stereo partly drawn) [CHETRACIN D] | 1060 nM | 810 nM | 1830 nM | 140 nM | 1650 nM
CN1C(=O)[C@]23SS[C@@]1(CO)C(=O)N2[C@H]1Nc2ccccc2C1([C@@]12c4ccccc4N[C@@H]1N1C(=O)[C@]4(CO)SS[C@]1(C(=O)N4C)[C@H]2O)[C@@H]3O (stereo partly drawn) [MELINACIDIN IV] | 52 nM | 5 nM | 47 nM | 22 nM | 54 nM
CS[C@@]1(CO)C(=O)N2[C@H]3N(C=O)c4ccccc4[C@@]3(c3c[nH]c4ccccc34)[C@H](O)[C@]2(SC)C(=O)N1C [OIDIOPERAZINE A] | > 10000 nM | > 10000 nM | > 10000 nM | > 10000 nM | > 10000 nM
CON1C(=O)C(CO)NC(=O)C1(O)Cc1c[nH]c2ccccc12 (stereo not drawn) [OIDIOPERAZINE B] | > 10000 nM | > 10000 nM | > 10000 nM | > 10000 nM | > 10000 nM
COC1(CO)NC(=O)/C(=C/c2c[nH]c3ccccc23)NC1=O (stereo not drawn) [OIDIOPERAZINE C] | > 10000 nM | > 10000 nM | > 10000 nM | > 10000 nM | > 10000 nM
C=C1NC(=O)C(Cc2c[nH]c3ccccc23)(OC)N(OC)C1=O (stereo not drawn) [OIDIOPERAZINE D] | > 10000 nM | > 10000 nM | > 10000 nM | > 10000 nM | > 10000 nM
CC(=O)O[C@H]1C(=O)[C@@]2(C)[C@H]([C@H](OC(=O)c3ccccc3)[C@]3(O)C[C@H](OC(=O)[C@H](O)[C@@H](NC(=O)c4ccccc4)c4ccccc4)C(C)=C1C3(C)C)[C@]1(OC(C)=O)CO[C@@H]1C[C@@H]2O [PACLITAXEL] |  | 6 nM | < 1 nM |  | < 1 nM
CS[C@@]1(CO)C(=O)N2[C@H]3Nc4ccccc4[C@@]3(c3c[nH]c4ccccc34)[C@H](O)[C@]2(SC)C(=O)N1C [T988 B] | > 10000 nM | > 10000 nM | > 10000 nM | > 10000 nM | > 10000 nM
CN1C(=O)[C@]23SS[C@]1(CO)C(=O)N2[C@H]1Nc2ccccc2[C@@]1(c1c[nH]c2ccccc12)[C@@H]3O [T988 C] | 700 nM | 550 nM | 670 nM | 1240 nM | 480 nM
